Measurements: paper PMC10585773, “Green synthesis of highly functionalized heterocyclic bearing pyrazole moiety for cancer-targeted chemo/radioisotope therapy” (BMC Chemistry, 2023)

Assays:
[1] = system: HepG2; assay: MTT assay, in-vitro cytotoxicity against HepG2; assay type: cell-based; conditions: Homo sapiens, HepG2 hepatocellular carcinoma cells, scale: 1–10 very strong, 11–20 strong, 21–50 moderate, 51–100 weak, above 100 non-cytotoxic
Source text: (§1) Hepatocellular carcinoma (HepG2), and colorectal carcinoma (HCT-116). The cell lines were obtained from ATCC via Holding company for biological products and vaccines (VACSERA), Cairo, Egypt.
(§2) The reagents RPMI-1640 medium, MTT and DMSO (sigma co., St. Louis, USA), Fetal Bovine serum (GIBCO, UK). 5-Fluorouracil was used as a standard anticancer drug for comparison.
(§3) HepG2 and (HCT-116 were used to determine the inhibitory effects of compounds on cell growth using the MTT assay. The relative cell viability in percentage was calculated as (A570 of treated samples/A570 of untreated sample) X 100.

[2] = system: HCT-116; assay: MTT assay, in-vitro cytotoxicity against HCT-116; assay type: cell-based; conditions: Homo sapiens, HCT-116 colorectal carcinoma cells, scale: 1–10 very strong, 11–20 strong, 21–50 moderate, 51–100 weak, above 100 non-cytotoxic
Source text: as §1, §2, §3

## N#Cc1c(N)nc2c(c(-c3ccccc3)nn2-c2ccccc2)c1N [Compound 2, 4,6-Diamino-1,3-diphenyl-1H-pyrazolo[3,4-b]pyridine-5-carbonitrile]
[1]
  IC50: 9.2 ± 2.8 µM
[2]
  IC50: 7.7 ± 1.8 µM

## CCOc1nc(-c2ccccc2)nc2c1c(-c1ccccc1)nn2-c1ccccc1 [Compound 8, 4-Ethoxy-1,3,6-triphenyl-1H-pyrazolo[3,4-d]pyrimidine]
[1]
  IC50: 12.1 ± 5.1 µM
[2]
  IC50: 17.4 ± 3.9 µM

## Nc1c(C(=O)O)[nH]c2c1c(-c1ccccc1)nn2-c1ccccc1 [Compound 4, 4-Amino-1,3-diphenyl-1,6-dihydropyrrolo[2,3-c]pyrazole-5-carboxylic acid]
[1]
  IC50: 14.5 ± 2.8 µM
[2]
  IC50: 15.2 ± 2.4 µM

## Nc1nc(-c2c(-c3ccccc3)nn(-c3ccccc3)c2N)nc2c1c(-c1ccccc1)nn2-c1ccccc1 [Compound 9, 6-(5-Amino-1,3-diphenyl-1H-pyrazol-4-yl)-1,3-diphenyl-1H-pyrazolo[3,4-d]pyrimidin-4-amine]
[1]
  IC50: 55.7 ± 2.7 µM
[2]
  IC50: 33.6 ± 2.1 µM

## Nc1nc(=S)[nH]c2c1c(-c1ccccc1)nn2-c1ccccc1 [Compound 7, 4-Amino-1,3-diphenyl-1,7-dihydro-6H-pyrazolo[3,4-d]pyrimidine-6-thione]
[1]
  IC50: 10.2 ± 2.1 µM
[2]
  IC50: 13.1 ± 2.3 µM

## Nc1nc(=O)[nH]c2c1c(-c1ccccc1)nn2-c1ccccc1 [Compound 6, 4-Amino-1,3-diphenyl-1,7-dihydro-6H-pyrazolo[3,4-d]pyrimidin-6-one]
[1]
  IC50: 91.4 ± 4.2 µM
[2]
  IC50: 51 ± 2.7 µM

## O=c1[nH]cc(F)c(=O)[nH]1 [Compound 5-Fu, 5-Fluorouracil, reference compound]
[1]
  IC50: 7.86 ± 0.5 µM
[2]
  IC50: 5.35 ± 0.3 µM

## Nc1n[nH]c2c1c(-c1ccccc1)nn2-c1ccccc1 [Compound 5, 4,6-Diphenyl-1,6-dihydropyrazolo[3,4-c]pyrazol-3-amine]
[1]
  IC50: 8.8 ± 5.1 µM
[2]
  IC50: 13.8 ± 3.9 µM

## NC(=O)c1c(N)nc2c(c(-c3ccccc3)nn2-c2ccccc2)c1N [Compound 3, 4,6-Diamino-1,3-diphenyl-1H-pyrazolo[3,4-b]pyridine-5-carboxamide]
[1]
  IC50: 22.8 ± 2.1 µM
[2]
  IC50: 29.4 ± 2.3 µM
